{"source": "patent US11639332B2", "about": "“Methods and compositions of isoindoline-1,3-dione and isoindole prodrugs useful for treating cancer, ulcerative colitis and related inflammatory diseases” (AMGEN (EUROPE) GMBH, priority 2018, dated 2023)", "system": "Trinitrobenzenesulfonic Acid (TNBS) Rat Model of Colonic Inflammation", "experiment": "Trinitrobenzenesulfonic acid (TNBS) rat model of colonic inflammation, oral treatment Days 1-6, evaluation Day 7", "type": "in vivo, Sprague-Dawley rats", "parameters": "key to Average Colonic Score: sum of adhesions, strictures, ulcers and wall thickness scores", "protocol": "In Vivo Efficacy of PDE4 Inhibitor Prodrug in the Trinitrobenzenesulfonic Acid (TNBS) Rat Model of Colonic Inflammation\n2. 1.62 g of prodrug from Example 2 (WB301), lot 2 (MW 587.12) in a clear 20 mL glass vial (orange material) which was stored at 4-8° C.\n38 Sprague-Dawley rats (Harlan Sprague-Dawley, Inc. male, PO #599229, R #3450, 200-220 g) were received, individually examined and housed in nine cages of four rats each and one cage containing two rats. No clinical signs of disease or distress were observed. The rats were placed in quarantine with daily inspections. The rats were ear notched (SOP 800) for identification purposes, weighed (RESULTS), and sorted into four treatment groups of eight rats each based upon average body weight. The rats were individually examined and found to be free of any clinical signs of disease or distress. No deaths were recorded during the quarantine period. The rats were released to routine maintenance.\nA 16 mg/ml TNBS solution was prepared be adding 2.729 ml picrylsulfonic acid solution (1 M, FLU KA, Cat. 92822, lot CDBB6609V) to 22.271 ml de-ionized water (dH20) and 25 ml 100% ethanol (200 proof, Sigma, Cat. E7023, lot SHBH3633V).\nThe rats were weighed (RESULTS), anesthetized (SOP1810) and Groups 1-4 were intra-rectally instilled with 4 ml/kg TNBS solution (64 mg/kg), the anus was pinched closed and the rat held inverted for one minute.\n400 mg (-)riboflavin was dissolved in 40 ml DMSO (Sigma, Cat. D5879, lot 16K0127) by sonication in a 40° C. water bath for 20 minutes in an amber glass bottle, followed by storage at room temperature overnight to prepare a 10 mg/ml yellow solution.\n135 mg NaOH (Fisher Scientific, Cat. S320, lot 066620) was dissolved in 100 ml dH2O to prepare a 1.35 mg/ml solution. 128.46 mg prednisolone 21-hemisuccinate sodium salt (Sigma, Cat. P4153, lot BCBB6136V, salt factor 1.339) was dissolved in 9.59 ml (-)riboflavin/DMSO followed by addition of 9.59 ml PEG400 (Sigma, Cat. 91893, lot BCBB7720). 28.781 aqueous NaOH was added with sonication to prepare a 2 mg/ml solution for Group 4. 44 mg WB301 was vortexed in 2.19 ml (-)riboflavin/DMSO to yield an orange solution followed by addition of 2.19 ml PEG400. 6.621 ml aqueous NaOH was added with sonication to prepare a 4 mg/ml solution for Group 1. 132 mg WB301 was vortexed in 2.19 ml (-)riboflavin/DMSO to yield an orange solution followed by addition of 2.19 ml PEG400. 6.621 ml aqueous NaOH was added with sonication to prepare a 12 mg/ml solution for Group 2. 6.6 mg apremilast was vortexed in 2.2 ml (-)riboflavin/DMSO to yield an orange solution followed by addition of 6.6 ml PEG400. 2.2 ml dH2O was added to prepare a 0.6 mg/ml solution for Group 3.\nThe rats were weighed (RESULTS) and daily oral (PO, SOP 1651) dosing at 5 ml/kg was initiated as in TABLE 1.\nThe rats were weighed (RESULTS) and the animals were dosed as described above daily. WB301 and apremilast solutions were prepared fresh daily as described above.\nThe rats were weighed (RESULTS) anesthetized, a midline incision was made in the abdomen and the colon was evaluated for adhesions and stricture (RESULTS). The colon was removed and the length recorded (RESULTS). A midline incision was made the entire length of the colon, the contents removed and the colon weight and colon wall thickness recorded (RESULTS). A section of the colon was preserved in 20 volumes of 10% neutral buffered formalin (Richard-Allan Scientific, Cat. 5701, lot 378532, exp07/2020). The carcasses were disposed of.\n3) involving several bowel loops=2\n4) severe, proximal dilatation=3\n2) linear ulceration <1 cm=1\n3) two linear ulcers <1 cm=2\n4) more sites of ulceration or one large ulcer=3", "key": {"[1]": {"settings": "group mean, Group 3, 3 mg/kg PO daily, Day 7"}, "[2]": {"settings": "group mean, Group 3, 3 mg/kg PO daily, Day 7, score 0-2"}, "[3]": {"settings": "group mean, Group 3, 3 mg/kg PO daily, Day 7, score 0-3"}, "[4]": {"settings": "individual rats, Group 3, 3 mg/kg PO daily, Day 7"}}, "note": "“And” between values parts separate entries of the source, which are not always exact repeats. Equal entries are not always repeated."}
{"smiles": "CCOc1cc([C@@H](CS(C)(=O)=O)N2C(=O)c3cccc(NC(C)=O)c3C2=O)ccc1OC", "note": "[Apremilast, apremilast, reference compound]", "values": [{"measurement": "macroscopic disease scores", "setting": "Group 3, 3 mg/kg daily oral", "result": "improvement of the macroscopic disease scores"}, {"measurement": "study day on which rats began to recover from TNBS-induced weight loss", "setting": "Group 3, 3 mg/kg daily oral", "result": 6, "unit": "days"}, {"measurement": "reduction in overall colonic score", "setting": "Group 3, 3 mg/kg daily oral, assuming a colonic score of 10 for vehicle-treated rats", "result": 25, "unit": "%"}, {"measurement": "body weight loss", "setting": "Group 3, 3 mg/kg daily oral, through DAY 5", "result": 11, "unit": "%"}, {"measurement": "Average # Ulcers", "setting": "[1]", "result": 1}, {"measurement": "Average Colon Length", "setting": "[1]", "result": 13.1, "unit": "cm"}, {"measurement": "Average Colon Weight", "setting": "[1]", "result": 4.793, "unit": "g"}, {"measurement": "Average Colonic Score", "setting": "[1]", "result": 7.6}, {"measurement": "Average Ratio (colon length/colon weight)", "setting": "[1]", "result": 3.470, "unit": "cm/g"}, {"measurement": "Average Ulcer Length", "setting": "[1]", "result": 6.3, "unit": "cm"}, {"measurement": "Average Wall Thickness", "setting": "[1]", "result": 3.0, "unit": "mm"}, {"measurement": "Average Adhesions", "setting": "[2]", "result": 1.3}, {"measurement": "Average Colon Wall Thickness, score", "setting": "[2]", "result": 1.5}, {"measurement": "Average Strictures", "setting": "[3]", "result": 1.9}, {"measurement": "Average Ulcers, score", "setting": "[3]", "result": 3.0}, {"measurement": "Average Rat Weight", "setting": "group mean, Group 3, 3 mg/kg PO daily, study day 0, day of TNBS, before dosing", "result": 214, "unit": "g"}, {"measurement": "Average Rat Weight", "setting": "group mean, Group 3, 3 mg/kg PO daily, study day 1, before first dose", "result": 207, "unit": "g"}, {"measurement": "Average Rat Weight", "setting": "group mean, Group 3, 3 mg/kg PO daily, study day 2", "result": 198, "unit": "g"}, {"measurement": "Average Rat Weight", "setting": "group mean, Group 3, 3 mg/kg PO daily, study day 3", "result": 195, "unit": "g"}, {"measurement": "Average Rat Weight", "setting": "group mean, Group 3, 3 mg/kg PO daily, study day 4", "result": 190, "unit": "g"}, {"measurement": "Average Rat Weight", "setting": "group mean, Group 3, 3 mg/kg PO daily, study day 5", "result": 190, "unit": "g"}, {"measurement": "Average Rat Weight", "setting": "group mean, Group 3, 3 mg/kg PO daily, study day 6", "result": 194, "unit": "g"}, {"measurement": "Average Rat Weight", "setting": "group mean, Group 3, 3 mg/kg PO daily, study day 7", "result": 201, "unit": "g"}, {"measurement": "Average Rat Weight", "setting": "group mean, Group 3, 3 mg/kg PO daily, study day −3, before TNBS and dosing", "result": 215, "unit": "g"}, {"measurement": "# Ulcers", "setting": "[4]", "result": 1}, {"measurement": "Colon Length", "setting": "[4]", "result": "10.0 cm and 15.5 cm and 12.0 cm (2×) and 11.5 cm and 13.0 cm and 15.0 cm and 16.0 cm"}, {"measurement": "Colon Weight", "setting": "[4]", "result": "3.608 g and 7.577 g and 2.860 g and 3.000 g and 4.462 g and 9.199 g and 6.085 g and 1.550 g"}, {"measurement": "Ratio (colon length/colon weight)", "setting": "[4]", "result": "2.772 cm/g and 2.046 cm/g and 4.196 cm/g and 3.833 cm/g and 2.913 cm/g and 1.631 cm/g and 2.629 cm/g and 7.742 cm/g"}, {"measurement": "Ulcer Length", "setting": "[4]", "result": "6.5 cm (2×) and 5.5 cm and 6.0 cm and 6.4 cm and 8.0 cm and 7.5 cm and 4.0 cm"}, {"measurement": "Wall Thickness", "setting": "[4]", "result": "2.5 mm (3×) and 3.5 mm (2×) and 3.7 mm and 4.0 mm and 1.5 mm"}, {"measurement": "Colon Wall Thickness, score", "setting": "individual rats, Group 3, 3 mg/kg PO daily, Day 7, less than 1 mm=0, 1-3 mm=1, >3 mm=2", "result": "1 (4×) and 2 (4×)"}, {"measurement": "Ulcers, score", "setting": "individual rats, Group 3, 3 mg/kg PO daily, Day 7, none=0, linear ulceration <1 cm=1, two linear ulcers <1 cm=2, more sites or one large ulcer=3", "result": 3}, {"measurement": "Strictures", "setting": "individual rats, Group 3, 3 mg/kg PO daily, Day 7, score none=0, mild=1, moderate=2, severe, proximal dilatation=3", "result": "1 (3×) and 3 (4×) and 0"}, {"measurement": "Adhesions", "setting": "individual rats, Group 3, 3 mg/kg PO daily, Day 7, score none=0, minimal=1, involving several bowel loops=2", "result": "1 (4×) and 2 (3×) and 0"}, {"measurement": "Colonic Score", "setting": "individual rats, Group 3, 3 mg/kg PO daily, Day 7, sum of adhesions, strictures, ulcers and wall thickness scores", "result": "6 and 10 (2×) and 7 (2×) and 8 and 9 and 4"}, {"measurement": "Rat Weight", "setting": "individual rats, Group 3, 3 mg/kg PO daily, study day 0, day of TNBS, before dosing", "result": "218 g and 213 g and 206 g and 220 g and 205 g and 217 g (2×) and 214 g"}, {"measurement": "Rat Weight", "setting": "individual rats, Group 3, 3 mg/kg PO daily, study day 1, before first dose", "result": "210 g and 213 g and 198 g and 214 g (2×) and 197 g and 204 g and 206 g"}, {"measurement": "Rat Weight", "setting": "individual rats, Group 3, 3 mg/kg PO daily, study day 2", "result": "198 g and 203 g (2×) and 183 g and 187 g and 205 g and 193 g and 214 g"}, {"measurement": "Rat Weight", "setting": "individual rats, Group 3, 3 mg/kg PO daily, study day 3", "result": "190 g and 200 g and 180 g (2×) and 198 g (2×) and 187 g and 225 g"}, {"measurement": "Rat Weight", "setting": "individual rats, Group 3, 3 mg/kg PO daily, study day 4", "result": "187 g (2×) and 200 g and 170 g and 188 g and 173 g and 183 g and 234 g"}, {"measurement": "Rat Weight", "setting": "individual rats, Group 3, 3 mg/kg PO daily, study day 5", "result": "189 g and 200 g and 167 g and 182 g (2×) and 172 g and 185 g and 244 g"}, {"measurement": "Rat Weight", "setting": "individual rats, Group 3, 3 mg/kg PO daily, study day 6", "result": "212 g and 202 g and 163 g and 176 g and 172 g and 186 g and 188 g and 250 g"}, {"measurement": "Rat Weight", "setting": "individual rats, Group 3, 3 mg/kg PO daily, study day 7", "result": "236 g and 210 g and 178 g (2×) and 177 g and 179 g and 194 g and 256 g"}, {"measurement": "Rat Weight", "setting": "individual rats, Group 3, 3 mg/kg PO daily, study day −3, before TNBS and dosing", "result": "218 g and 212 g and 210 g and 219 g and 209 g and 220 g and 217 g and 213 g"}]}
{"smiles": "Nc1ccc(O)c(C(=O)O)c1", "note": "[Example 5-ASA, 5-aminosalacyclic acid, reference compound]", "values": [{"measurement": "activity in the TNBS model", "setting": "rat TNBS model, stated without data", "result": "inactive"}]}
